According to patent publication EP4603105A1, “PHARMACEUTICAL COMPOSITION CONTAINING CYCLIC COMPOUND HAVING SELECTIVE KRAS INHIBITORY EFFECT AGAINST HRAS AND NRAS” (CHUGAI SEIYAKU KABUSHIKI KAISHA, priority 2022, dated 2024):
pIC50, pKd: −log10 of the molar value. Read-outs that look alike come from different tables or passages of the source.

Legend:
[1] = target: GDP-bound KRAS wild-type protein (Homo sapiens, UniProt P01116); assay: Binding to KRAS by surface plasmon resonance (SPR), dissociation constant KD
Outline: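 Running buffer contained 10 µM GDP and 10 mM MgCl2 to keep RAS in the GDP state, with 4% DMSO at pH 7.4. Compounds were flowed at 100 µL/min in 75 s steps of rising concentration over captured biotin-Avi RAS at 30°C. Sensorgrams were fitted 1:1 for KD.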

[2] = target: GDP-bound NRAS wild-type protein (Homo sapiens, UniProt P01111); assay: Binding to NRAS by surface plasmon resonance (SPR), KD and KD ratio to KRAS
Outline: (§1)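 Single-cycle kinetics on GDP-loaded biotin-Avi RAS captured to ~100–300 RU; 75 s ascending injections, 100 µL/min, 30°C. HBS pH 7.4 + 10 mM MgCl2/10 µM GDP/4% DMSO. 1:1 fit, KD.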

HRAS wild-type protein = HRAS wild-type protein (Homo sapiens, UniProt P01112); assay: Binding to HRAS by surface plasmon resonance (SPR), KD and KD ratio to KRAS
Outline: as §1

[3] = system: human lung cancer strain NCI-H441; assay: NCI-H441 cell proliferation inhibitory activity (CellTiter-Glo, 4 days); format: cell-based; conditions: read-out: NCl-H441 IC50
Outline: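 Proliferation was scored by […] measured after the reagent was added to cultures kept at 37°C in 5% carbon dioxide.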

[4] = ratio of KD for GDP-bound NRAS wild-type protein to KD for KRAS
[5] = ratio of KD for HRAS wild-type protein to KD for KRAS
[6] = Single Cycle Kinetics, 1:1 binding model
[7] = ratio of KD with respect to GDP-bound NRAS wild-type protein to KD with respect to KRAS
[8] = ratio of KD with respect to HRAS wild-type protein to KD with respect to KRAS
[9] = 50% proliferation inhibitory concentration, four days

Chain of GDP-bound KRAS wild-type protein (P01116 1-188 isoform P01116-2): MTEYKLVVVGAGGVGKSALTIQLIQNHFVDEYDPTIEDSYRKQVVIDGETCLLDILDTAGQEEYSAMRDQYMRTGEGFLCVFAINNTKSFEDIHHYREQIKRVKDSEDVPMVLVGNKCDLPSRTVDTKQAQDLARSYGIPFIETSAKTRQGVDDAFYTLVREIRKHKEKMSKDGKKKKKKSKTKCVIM
Chain of GDP-bound NRAS wild-type protein (P01111 whole entry): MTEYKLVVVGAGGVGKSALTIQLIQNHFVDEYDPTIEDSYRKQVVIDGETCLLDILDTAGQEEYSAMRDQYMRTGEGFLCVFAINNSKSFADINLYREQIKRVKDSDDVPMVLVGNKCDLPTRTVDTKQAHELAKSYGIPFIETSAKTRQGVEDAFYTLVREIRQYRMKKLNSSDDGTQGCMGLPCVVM
Chain of HRAS wild-type protein (P01112 whole entry): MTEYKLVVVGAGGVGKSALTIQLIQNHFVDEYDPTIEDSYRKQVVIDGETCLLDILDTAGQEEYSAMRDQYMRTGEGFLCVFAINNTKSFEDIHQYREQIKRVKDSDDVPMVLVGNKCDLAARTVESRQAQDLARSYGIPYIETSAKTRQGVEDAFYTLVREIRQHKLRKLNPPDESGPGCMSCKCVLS

Row | SMILES | pKd ([1]; 1:1 binding model) | pIC50 ([3]; NCI-H441 cells, 4 days) | pKd ([1]; Single Cycle Kinetics) | pKd [1, 6] | pIC50 [3, 9] | NRAS /KRAS [2, 4] | HRAS /KRAS (HRAS wild-type protein; [5]) | NRAS /KRAS [2, 7] | HRAS /KRAS (HRAS wild-type protein; [8])
1 | CCO[C@@H]1C[C@H]2C(=O)OC3(CCC3)C(=O)N(C)[C@@H](C3CCCC3)C(=O)N(C)[C@H](C(=O)N(C)C)CC(=O)N(C)[C@@H](CC(C)C)C(=O)N[C@@H]([C@@H](C)CC)C(=O)N(C)CC(=O)N(C)[C@H]3C/C=C\CCN(C3=O)[C@@H](Cc3ccc(C)cc3)C(=O)N(C)CC(=O)N[C@@H](CCc3ccc(C(F)(F)F)c(OC)c3)C(=O)N2C1 [PP3382] |  | 8.28 | 9.70 |  |  | A (a compound having 10 or more and less than 20 is denoted as A) | B (a compound having 3 or more and less than 10 is denoted as B) |  | 
2 | CCCOC[C@H]1C(=O)N[C@@H]([C@@H](C)CC)C(=O)N2CCC[C@H]2C(=O)N(C)[C@H]2C/C=C\CCN(C2=O)[C@@H](CC2CCC(F)(F)CC2)C(=O)N(C)CC(=O)N[C@@H](CCc2ccc(C(F)(F)F)c(OC)c2)C(=O)N2C[C@@H](C)C[C@H]2C(=O)N(C)C2(CCC2)C(=O)N(C)[C@@H](C2CCCC2)C(=O)N(C)[C@H](C(=O)N(C)C)CC(=O)N1C [PP2381] | 9.03 | 8.49 |  |  |  | A (a compound having 10 or more and less than 20 is denoted as A) | A (a compound having 10 or more and less than 20 is denoted as A) |  | 
3 | CCCO[C@@H]1C[C@H]2C(=O)NC3(CC(C)(C)C3)C(=O)N(C)[C@@H](C3CCCC3)C(=O)N(C)[C@H](C(=O)N(C)CC)CC(=O)N(C)[C@@H](COCC)C(=O)N[C@@H]([C@@H](C)CC)C(=O)N3C[C@@H](F)C[C@H]3C(=O)N(C)[C@H]3C/C=C\CCN(C3=O)[C@@H](Cc3ccc(C)cc3)C(=O)N(C)CC(=O)N[C@@H](CCc3cc(F)c(C(F)(F)F)c(F)c3)C(=O)N2C1 [PP3461] |  | 7.72 | 9.46 |  |  | A (a compound having 10 or more and less than 20 is denoted as A) | A (a compound having 10 or more and less than 20 is denoted as A) |  | 
4 | C#CC[C@H]1C(=O)N[C@@H]([C@@H](C)CC)C(=O)N(C2CC2)CC(=O)N(C)[C@H]2C/C=C\CCN(C2=O)[C@@H](Cc2ccc(C(F)(F)F)cc2)C(=O)N(C)CC(=O)N[C@@H](CCc2cc(F)c(C(F)(F)F)c(F)c2)C(=O)N2C[C@H](OCC)C[C@H]2C(=O)N(C)C2(CCC2)C(=O)N(C)[C@@H](C2CCCC2)C(=O)N(C)[C@H](C(=O)N(C)C)CC(=O)N1C [PP3244] |  | 8.72 | 10.00 |  |  | A (a compound having 10 or more and less than 20 is denoted as A) | A (a compound having 10 or more and less than 20 is denoted as A) |  | 
5 | CCCO[C@H](C)[C@@H]1NC(=O)[C@H](CC(C)C)N(C)C(=O)C[C@@H](C(=O)N(C)C)N(C)C(=O)[C@H](C2CCCC2)N(C)C(=O)C2(CC(C)(C)C2)NC(=O)[C@@H]2C[C@H](C)CN2C(=O)[C@H](CCc2ccc(C(F)(F)F)c(OC)c2)NC(=O)CN(C)C(=O)[C@H](Cc2ccc(C)cc2)N2CC/C=C\C[C@@H](C2=O)N(C)C(=O)CN(C)C1=O [PP2415] | 10.03 | 7.99 |  |  |  | AA (a compound having 20 or more is denoted as AA) | A (a compound having 10 or more and less than 20 is denoted as A) |  | 
6 | CCCO[C@@H]1C[C@H]2C(=O)NC3(CC(C)(C)C3)C(=O)N(C)[C@@H](C3CCCC3)C(=O)N(C)[C@H](C(=O)N(C)CC)CC(=O)N(C)[C@@H](COCC)C(=O)N[C@@H]([C@@H](C)CC)C(=O)N(C3CC3)CC(=O)N(C)[C@H]3C/C=C\CCN(C3=O)[C@@H](Cc3ccc(C(F)(F)F)cc3)C(=O)N(C)CC(=O)N[C@@H](CCc3ccc(C(F)(F)F)c(OC)c3)C(=O)N2C1 [PP3411] |  | 7.59 | 9.14 |  |  | A (a compound having 10 or more and less than 20 is denoted as A) | A (a compound having 10 or more and less than 20 is denoted as A) |  | 
7 | CCO[C@@H]1C[C@H]2C(=O)NC3(CCC3)C(=O)N(C)[C@@H](C3CCCC3)C(=O)N(C)[C@H](C(=O)N3CCCCC3)CC(=O)N(C)[C@@H](CC3CC3)C(=O)N[C@@H]([C@@H](C)CC)C(=O)N(C)CC(=O)N(C)[C@H]3C/C=C\CCN(C3=O)[C@@H](Cc3ccc(C(F)(F)F)cc3)C(=O)N(C)CC(=O)N[C@@H](CCc3cc(F)c(C(F)(F)F)c(F)c3)C(=O)N2C1 [PP1291] |  |  |  | 9.62 | 7.78 |  |  | A (a compound having 10 or more and less than 20 is denoted as A) | A (a compound having 10 or more and less than 20 is denoted as A)
8 | CCOC[C@H]1C(=O)N[C@@H]([C@@H](C)CC)C(=O)N(C)CC(=O)N(C)[C@H]2C/C=C\CCN(C2=O)[C@@H](Cc2ccc(C)cc2)C(=O)N(C)CC(=O)N[C@@H](CCc2ccc(C(F)(F)F)c(Cl)c2)C(=O)N2C[C@H](OCC)C[C@H]2C(=O)NC2(CC(C)(C)C2)C(=O)N(C)[C@@H](C2CCCC2)C(=O)N(C)[C@H](C(=O)N(C)C)CC(=O)N1C [PP2395] | 10.14 | 8.20 |  |  |  | A (a compound having 10 or more and less than 20 is denoted as A) | B (a compound having 3 or more and less than 10 is denoted as B) |  | 

Further lines, with some results ahead:

Row | pKd ([1]; 1:1 binding model) | pIC50 ([3]; NCI-H441 cells, 4 days) | pKd ([1]; Single Cycle Kinetics) | pKd [1, 6] | pIC50 [3, 9] | SMILES | NRAS /KRAS [2, 4] | HRAS /KRAS (HRAS wild-type protein; [5]) | NRAS /KRAS [2, 7] | HRAS /KRAS (HRAS wild-type protein; [8])
9 | 8.37 | 6.48 |  |  |  | CCC[C@H]1C(=O)N[C@@H](CC(C)C)C(=O)N(CC)CC(=O)N(C)[C@H]2C/C=C\CCN(C2=O)[C@@H](Cc2ccc(C)cc2)C(=O)N(C)CC(=O)N[C@@H](CCc2cc(F)c(C(F)(F)F)c(F)c2)C(=O)N2C[C@H](OCC)C[C@H]2C(=O)NC2(CCC2)C(=O)N(C)[C@@H](C2CCCC2)C(=O)N(C)[C@H](C(=O)N(C)C)CC(=O)N1C [PP2539] | A (a compound having 10 or more and less than 20 is denoted as A) | B (a compound having 3 or more and less than 10 is denoted as B) |  | 
10 |  |  |  | 10.27 | 7.04 | CC[C@H](C)[C@@H]1NC(=O)[C@H](C)N(C)C(=O)C[C@@H](C(=O)N(C)C)N(C)C(=O)[C@H](C2CCCC2)N(C)C(=O)C2(CCC2)NC(=O)[C@@H]2CCCN2C(=O)[C@H](CCc2cc(F)c(C(F)(F)F)c(F)c2)NC(=O)CN(C)C(=O)[C@H](Cc2ccc(C(F)(F)F)cc2)N2CC/C=C\C[C@@H](C2=O)N(C)C(=O)CN(C)C1=O [PP1271] |  |  | AA (a compound having 20 or more is denoted as AA) | A (a compound having 10 or more and less than 20 is denoted as A)
11 | 9.07 | 7.25 |  |  |  | CCC[C@H]1C(=O)N[C@@H]([C@@H](C)CC)C(=O)N(C)CC(=O)N(C)[C@H]2C/C=C\CCN(C2=O)[C@@H](Cc2ccc(C(F)(F)F)cc2)C(=O)N(C)CC(=O)N[C@@H](CCc2ccc(C(F)(F)F)c(OC)c2)C(=O)N2C[C@H](OCC)C[C@H]2C(=O)NC2(CC(C)(C)C2)C(=O)N(C)[C@@H](CC2CCC2)C(=O)N(C)[C@H](C(=O)N(C)C)CC(=O)N1C [PP2764] | A (a compound having 10 or more and less than 20 is denoted as A) | A (a compound having 10 or more and less than 20 is denoted as A) |  | 
12 |  | 7.60 | 9.09 |  |  | CCC[C@H]1C(=O)N[C@@H]([C@@H](C)CC)C(=O)N2CCCC[C@H]2C(=O)N(C)[C@H]2C/C=C\CCN(C2=O)[C@@H](Cc2ccc(C)cc2)C(=O)N(C)CC(=O)N[C@@H](CCc2cc(F)c(C(F)(F)F)c(F)c2)C(=O)N2C[C@H](OCC)C[C@H]2C(=O)N(C)C2(CCC2)C(=O)N(C)[C@@H](C2CCCC2)C(=O)N(C)[C@H](C(=O)N(C)C)CC(=O)N1C [PP3274] | A (a compound having 10 or more and less than 20 is denoted as A) | B (a compound having 3 or more and less than 10 is denoted as B) |  | 
13 | 8.32 | 6.84 |  |  |  | CCOC[C@H]1C(=O)N[C@@H]([C@@H](C)CC)C(=O)N(C2CC2)CC(=O)N(C)[C@@H]2C/C=C\CCN(C2=O)[C@@H](Cc2ccc(C)cc2)C(=O)N(C)CC(=O)N[C@@H](CCc2ccc(C(F)(F)F)c(OC)c2)C(=O)N2C[C@H](OCC)C[C@@H]2C(=O)NC2(CC(C)(C)C2)C(=O)N(C)[C@H](CC2CCC2)C(=O)N(C)[C@H](C(=O)N(C)C)CC(=O)N1C [PP2760] | A (a compound having 10 or more and less than 20 is denoted as A) | B (a compound having 3 or more and less than 10 is denoted as B) |  | 
14 |  | 7.68 | 9.26 |  |  | CCCO[C@@H]1C[C@H]2C(=O)NC3(CC(C)(C)C3)C(=O)N(C)[C@@H](C3CCCC3)C(=O)N(C)[C@H](C(=O)N(C)CC)CC(=O)N(C)[C@@H](COCC)C(=O)N[C@@H]([C@@H](C)CC)C(=O)N3C[C@@H](F)C[C@H]3C(=O)N(C)[C@H]3C/C=C\CCN(C3=O)[C@@H](Cc3ccc(C(F)(F)F)cc3)C(=O)N(C)CC(=O)N[C@@H](CCc3ccc(C(F)(F)F)c(Cl)c3)C(=O)N2C1 [PP3409] | A (a compound having 10 or more and less than 20 is denoted as A) | A (a compound having 10 or more and less than 20 is denoted as A) |  | 
15 |  | 6.83 | 8.77 |  |  | CCCO[C@@H]1C[C@H]2C(=O)NC3(CC(C)(C)C3)C(=O)N(C)[C@@H](C3CCCC3)C(=O)N(C)[C@H](C(=O)N(C)CC)CC(=O)N[C@@H](COCC)C(=O)N[C@@H]([C@@H](C)CC)C(=O)N3CCC[C@H]3C(=O)N(C)[C@H]3C/C=C\CCN(C3=O)[C@@H](Cc3ccc(C)cc3)C(=O)N(C)CC(=O)N[C@@H](CCc3ccc(C(F)(F)F)c(OC)c3)C(=O)N2C1 [PP3439] | A (a compound having 10 or more and less than 20 is denoted as A) | A (a compound having 10 or more and less than 20 is denoted as A) |  | 
